In the NIST ThermoML archive (doi:10.1016/j.fluid.2015.03.012):

Experiment: mn = molality of the nth substance listed, in mol/kg
Conditions: Survismeter

C[C@H](CCC(=O)[O-])[C@H]1CC[C@H]2[C@@H]3CC[C@@H]4C[C@H](O)CC[C@]4(C)[C@H]3C[C@H](O)[C@]12C.[Na+] [sodium deoxycholate] + O
surface tension liquid-gas [mN/m]
Conditions | 293.15 K | 298.15 K | 303.15 K | 308.15 K | 313.15 K | 318.15 K
m1 = 0.001 | 58.04 | 55.92 | 54.2 | 54.06 | 54.23 | 54.09
m1 = 0.002 | 55.17 | 53.25 | 51.68 | 51.56 | 51.75 | 51.62
m1 = 0.003 | 53.42 | 51.34 | 49.87 | 49.77 | 50.21 | 50.1
m1 = 0.004 | 50.47 | 48.6 | 47.5 | 47.19 | 47.62 | 48.2
m1 = 0.005 | 48.29 | 46.35 | 46.18 | 45.89 | 46.32 | 46.44
m1 = 0.006 | 46.29 | 45.1 | 45.13 | 44.86 | 45.29 | 45.21
m1 = 0.007 | 45.25 | 44.7 | 44.53 | 44.27 | 44.69 | 44.42
m1 = 0.009 | 44.86 | 44.51 | 44.34 | 43.89 | 44.11 | 44.04
m1 = 0.011 | 44.66 | 44.32 | 44.16 | 44.09 | 44.31 | 44.24
m1 = 0.013 | 44.87 | 44.53 | 44.16 | 43.9 | 44.32 | 44.24
m1 = 0.015 | 45.08 | 44.73 | 44.17 | 44.1 | 44.14 | 44.06
m1 = 0.017 | 44.89 | 44.54 | 44.18 | 44.3 | 44.14 | 44.26
